Source: the NIST ThermoML archive (doi:10.1016/j.jct.2017.01.011)
Numbers after ± are expanded uncertainties.

Tests used:
[1] = xn = mol fraction of the nth substance listed; conditions: 100 kPa, Liquid, x1 = 1; for speed of sound: Frequency=3 MHz, Single path-length method; for mass density: Vibrating tube method
[2] = 100 kPa, Liquid; for speed of sound: Frequency=3 MHz, Single path-length method; for mass density: Vibrating tube method

Structure (SMILES)	speed of sound ([1]; 283.15 K) [m/s]	mass density ([1]; 283.15 K) [kg/m3]	speed of sound ([1]; 293.15 K) [m/s]	mass density ([1]; 293.15 K) [kg/m3]	speed of sound ([1]; 303.15 K) [m/s]	mass density ([1]; 303.15 K) [kg/m3]	speed of sound ([1]; 313.15 K) [m/s]	mass density ([1]; 313.15 K) [kg/m3]	speed of sound ([2]; 283.15 K) [m/s]	mass density ([2]; 283.15 K) [kg/m3]	speed of sound ([2]; 293.15 K) [m/s]	mass density ([2]; 293.15 K) [kg/m3]	speed of sound ([2]; 303.15 K) [m/s]	mass density ([2]; 303.15 K) [kg/m3]	speed of sound ([2]; 313.15 K) [m/s]	mass density ([2]; 313.15 K) [kg/m3]
CCO [ethanol] + OCC(O)CO	1196.8 ± 4.1	798 ± 1	1162.3 ± 4.1	790 ± 1	1128.2 ± 4.1	781 ± 1	1094.5 ± 4.1	772 ± 1								
OCC(O)CO [glycerol]									1942.3 ± 6.1	1267 ± 1	1922.9 ± 6.1	1261 ± 1	1901 ± 6.1	1255 ± 1	1879.3 ± 6.1	1248 ± 1
CO [methanol] + OCC(O)CO	1153.3 ± 4.1	801 ± 1	1119.6 ± 4.1	791 ± 1	1086.6 ± 4.1	782 ± 1	1054.2 ± 4.1	772 ± 1								
